Experimental data taken from patent US9233077B2, “Delayed release cysteamine bead formulation, and methods of making and using same” (RAPTOR PHARMACEUTICALS INC., priority 2013, dated 2016).

Experiment: Plasma protein binding of cysteamine
Type: in vitro ADME
Conditions: human plasma proteins, predominantly albumin

fraction unbound: ~0.48
SMILES: NCCS [cysteamine]
